± gives the expanded uncertainty stated by the source.
Legend:
[1] = Molar enthalpy of transition or fusion; conditions: Crystal
[2] = Crystal
[3] = molar heat capacity at constant pressure; conditions: 101.33 kPa

CCCCCCCCCCCC(=O)O.Cc1cc(C)nc(Nc2ccccc2)n1 [4,6-dimethyl-N-phenylpyrimidin-2-amine dodecanoate]
Conditions | Molar enthalpy of transition or fusion [kcal/mol] | Triple point temperature [K]
[1] | 16.07 ± 0.0263 | –
[2] | – | 321.52 ± 0.12

[3]
Conditions | molar heat capacity at constant pressure [J/K/mol]
78.4 K, Crystal | 214.56 ± 2.3
80.59 K, Crystal | 219.02 ± 2.4
82.77 K, Crystal | 224.04 ± 2.4
84.91 K, Crystal | 229.03 ± 2.5
87.02 K, Crystal | 231.07 ± 2.5
89.13 K, Crystal | 235.38 ± 2.6
91.21 K, Crystal | 238.58 ± 2.3
93.27 K, Crystal | 241.25 ± 2.3
95.35 K, Crystal | 244.45 ± 2.4
97.44 K, Crystal | 249.07 ± 2.4
99.52 K, Crystal | 255.64 ± 2.4
101.56 K, Crystal | 258.48 ± 2.5
103.55 K, Crystal | 262.85 ± 2.5
105.48 K, Crystal | 266.32 ± 2.5
107.37 K, Crystal | 268.87 ± 2.6
109.23 K, Crystal | 272.45 ± 2.6
111.05 K, Crystal | 277.04 ± 2.6
112.84 K, Crystal | 280.4 ± 2.6
114.62 K, Crystal | 283.66 ± 2.7
116.37 K, Crystal | 286.19 ± 2.7
118.1 K, Crystal | 289.83 ± 2.7
119.81 K, Crystal | 291.78 ± 2.7
121.5 K, Crystal | 295.26 ± 2.8
123.18 K, Crystal | 299.07 ± 2.8
124.85 K, Crystal | 302.36 ± 2.8
126.5 K, Crystal | 305.27 ± 2.8
128.13 K, Crystal | 309.31 ± 2.9
129.75 K, Crystal | 313.47 ± 2.9
131.36 K, Crystal | 316.7 ± 2.9
133.51 K, Crystal | 320.85 ± 3
136.04 K, Crystal | 325.43 ± 3
138.47 K, Crystal | 328.35 ± 3
140.85 K, Crystal | 332.7 ± 3.1
143.2 K, Crystal | 334.95 ± 3.1
145.52 K, Crystal | 336.56 ± 3.1
147.82 K, Crystal | 338.15 ± 3.1
150.09 K, Crystal | 340.57 ± 3.1
152.34 K, Crystal | 342.79 ± 3.1
154.57 K, Crystal | 344.26 ± 3.2
156.78 K, Crystal | 346.53 ± 3.2
158.98 K, Crystal | 347.92 ± 3.2
161.16 K, Crystal | 351.38 ± 3.2
163.31 K, Crystal | 355.11 ± 3.2
165.46 K, Crystal | 356.7 ± 3.3
167.59 K, Crystal | 360.16 ± 3.3
169.71 K, Crystal | 363.66 ± 3.3
171.81 K, Crystal | 365.89 ± 3.3
173.91 K, Crystal | 368.25 ± 3.3
175.99 K, Crystal | 370.24 ± 3.4
178.06 K, Crystal | 374.92 ± 3.4
180.1 K, Crystal | 378.77 ± 3.4
182.13 K, Crystal | 381.27 ± 3.5
184.16 K, Crystal | 384.86 ± 3.5
186.15 K, Crystal | 387.43 ± 3.5
188.14 K, Crystal | 391.88 ± 3.5
190.11 K, Crystal | 393.71 ± 3.6
192.06 K, Crystal | 396.41 ± 3.6
194.01 K, Crystal | 400.38 ± 3.6
195.94 K, Crystal | 403.84 ± 3.6
197.86 K, Crystal | 406.78 ± 3.7
199.77 K, Crystal | 410.78 ± 3.7
201.68 K, Crystal | 414.73 ± 3.7
203.58 K, Crystal | 416.01 ± 3.7
205.49 K, Crystal | 418.67 ± 3.7
207.39 K, Crystal | 423.8 ± 3.8
209.27 K, Crystal | 427.28 ± 3.8
213.63 K, Crystal | 430.93 ± 3.8
215.48 K, Crystal | 433.69 ± 3.9
217.33 K, Crystal | 437.16 ± 3.9
219.16 K, Crystal | 440.33 ± 3.9
220.99 K, Crystal | 444.57 ± 4
222.81 K, Crystal | 447.12 ± 4
224.61 K, Crystal | 450.71 ± 4
226.4 K, Crystal | 454.16 ± 4
228.17 K, Crystal | 457.43 ± 4.1
229.91 K, Crystal | 461.64 ± 4.1
231.66 K, Crystal | 464.26 ± 4.1
233.45 K, Crystal | 468.99 ± 4.1
235.26 K, Crystal | 472.26 ± 4.2
237.06 K, Crystal | 475.98 ± 4.2
238.86 K, Crystal | 479.33 ± 4.2
240.62 K, Crystal | 485.92 ± 4.3
242.33 K, Crystal | 489.49 ± 4.3
244.03 K, Crystal | 494.38 ± 4.4
245.76 K, Crystal | 499.28 ± 4.4
248.1 K, Crystal | 502 ± 4.4
250.99 K, Crystal | 505.26 ± 4.4
253.79 K, Crystal | 509.97 ± 4.5
256.52 K, Crystal | 514.43 ± 4.5
259.21 K, Crystal | 517.59 ± 4.5
261.87 K, Crystal | 521.36 ± 4.6
264.51 K, Crystal | 524.15 ± 4.6
267.13 K, Crystal | 529.61 ± 4.6
269.73 K, Crystal | 533.73 ± 4.7
272.3 K, Crystal | 537.73 ± 4.7
274.79 K, Crystal | 541.43 ± 4.7
277.25 K, Crystal | 545.05 ± 4.8
279.67 K, Crystal | 549.95 ± 4.8
282.04 K, Crystal | 553.99 ± 4.8
284.36 K, Crystal | 557.02 ± 4.9
286.64 K, Crystal | 560.07 ± 4.9
288.9 K, Crystal | 564.82 ± 4.9
291.1 K, Crystal | 568.54 ± 4.9
293.23 K, Crystal | 573.27 ± 5
295.4 K, Crystal | 577.71 ± 5
297.6 K, Crystal | 582.62 ± 5.1
299.78 K, Crystal | 586.55 ± 5.1
301.95 K, Crystal | 590.35 ± 5.1
304.05 K, Crystal | 595.77 ± 5.2
306.13 K, Crystal | 598.65 ± 5.2
308.2 K, Crystal | 604.09 ± 5.2
323.46 K, Liquid | 830.56 ± 7
325.28 K, Liquid | 836.77 ± 7.1
327.09 K, Liquid | 842.17 ± 7.1
328.88 K, Liquid | 847.91 ± 7.2
330.65 K, Liquid | 851.32 ± 7.2
332.41 K, Liquid | 855.64 ± 7.2
334.15 K, Liquid | 860.22 ± 7.3
335.87 K, Liquid | 866.7 ± 7.3
337.57 K, Liquid | 869.28 ± 7.4
339.26 K, Liquid | 872.85 ± 7.4

From the NIST ThermoML archive (doi:10.1016/j.jct.2004.06.002)
